Test results published in ChEMBL document CHEMBL1157499, “Synthesis and biological evaluation of 1-(benzenesulfonamido)-2-[5-(N-hydroxypyridin-2(1H)-one)]acetylene regioisomers: a novel class of 5-lipoxygenase inhibitors” (Bioorg Med Chem Lett, 2008).
The source made the active and inactive calls. The rule behind the calls is not given here.

Test system: Rattus norvegicus
Experiment: Antiinflammatory activity against carrageenan-induced paw edema in po dosed rat after 3 hrs
Assay type: functional

SMILES	Activity	ED50
NS(=O)(=O)c1cccc(C#Cc2ccc(=O)n(O)c2)c1	inactive	–
NS(=O)(=O)c1ccccc1C#Cc1ccc(=O)n(O)c1	–	86 mg/kg
NS(=O)(=O)c1ccc(C#Cc2ccc(=O)n(O)c2)cc1	inactive	–
